Key:
[1] = molecular target: T1, recombinant guanylate cyclase reporter cell line (Rattus norvegicus, UniProt P19686+P20595); experiment: Effect on a recombinant guanylate cyclase reporter cell line; assay type: cell-based; conditions: MEC = minimum effective concentration; in some cases means of individual determinations
T1 construct: expressed in transfected cells
T1 sequence (P19686 1-690): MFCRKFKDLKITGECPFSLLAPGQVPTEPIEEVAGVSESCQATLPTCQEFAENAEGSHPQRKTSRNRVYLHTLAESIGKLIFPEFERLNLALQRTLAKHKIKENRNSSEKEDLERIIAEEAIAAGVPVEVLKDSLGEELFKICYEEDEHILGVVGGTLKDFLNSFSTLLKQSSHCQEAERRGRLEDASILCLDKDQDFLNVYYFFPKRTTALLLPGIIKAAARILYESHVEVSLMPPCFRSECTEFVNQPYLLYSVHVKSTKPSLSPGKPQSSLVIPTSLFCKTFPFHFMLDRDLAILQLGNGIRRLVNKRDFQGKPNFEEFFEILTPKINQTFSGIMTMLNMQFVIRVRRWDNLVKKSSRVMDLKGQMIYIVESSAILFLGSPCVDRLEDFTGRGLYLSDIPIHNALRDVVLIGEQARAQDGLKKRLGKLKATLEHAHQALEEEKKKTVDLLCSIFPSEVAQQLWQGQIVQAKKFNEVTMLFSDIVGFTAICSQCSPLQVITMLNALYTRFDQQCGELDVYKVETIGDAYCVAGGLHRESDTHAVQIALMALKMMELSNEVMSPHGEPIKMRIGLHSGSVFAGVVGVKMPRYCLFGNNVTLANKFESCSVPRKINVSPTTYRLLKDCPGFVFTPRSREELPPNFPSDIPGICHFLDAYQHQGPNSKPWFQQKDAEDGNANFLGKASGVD
T1 sequence (P20595 1-619): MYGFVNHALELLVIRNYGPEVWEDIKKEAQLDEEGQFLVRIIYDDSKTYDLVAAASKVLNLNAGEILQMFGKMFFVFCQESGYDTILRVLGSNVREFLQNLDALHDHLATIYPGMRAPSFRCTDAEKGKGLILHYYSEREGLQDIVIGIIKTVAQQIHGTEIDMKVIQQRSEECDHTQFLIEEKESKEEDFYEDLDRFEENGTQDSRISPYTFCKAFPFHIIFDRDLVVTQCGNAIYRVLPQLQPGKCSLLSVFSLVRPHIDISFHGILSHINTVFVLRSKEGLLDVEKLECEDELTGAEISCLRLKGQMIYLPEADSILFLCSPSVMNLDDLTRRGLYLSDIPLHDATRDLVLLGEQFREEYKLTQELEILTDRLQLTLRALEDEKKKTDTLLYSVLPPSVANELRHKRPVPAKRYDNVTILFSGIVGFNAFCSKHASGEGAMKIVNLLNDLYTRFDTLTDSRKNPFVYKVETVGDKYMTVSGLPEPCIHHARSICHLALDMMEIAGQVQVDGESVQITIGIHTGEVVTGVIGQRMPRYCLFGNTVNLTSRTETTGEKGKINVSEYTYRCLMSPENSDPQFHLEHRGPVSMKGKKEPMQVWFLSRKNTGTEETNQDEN
Outline: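 Cellular activity measured in a recombinant rat soluble guanylate cyclase reporter cell line. Values are minimum effective concentration (MEC), some given as means of individual determinations.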

[2] = molecular target: T2, human phosphodiesterase 5 (PDE 5) (Homo sapiens, UniProt O76074); experiment: Inhibition of human phosphodiesterase 5 (PDE 5); assay type: biochemical; conditions: PDE 5 preparation from human platelets; in some cases means of individual determinations
T2 construct: PDE 5 preparations are obtained from human platelets by disruption; from tissue; host or cells: human platelets
Outline: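 Enzyme partially purified from human platelets by Mono Q ion exchange, diluted so that under 70% of substrate converts. [8-3H]cGMP at 0.025 μCi per well in Tris pH 7.5 with MgCl2/EDTA, 60 min at room temperature, yttrium SPA bead read-out. Final compound concentrations 4–0.0018 μM; IC50 from concentration–inhibition plot.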

| Structure (SMILES) | MEC [1] | IC50 [2] |
| --- | --- | --- |
| CC1(C)C(=O)Nc2nc(-c3nn(Cc4ccccc4F)c4ncc(F)cc34)nc(C(=O)NCC(F)(F)F)c21 [Example 50] | 0.1 µM | 0.019 µM |
| CC1(C)C(=O)Nc2nc(-c3nn(Cc4ccccc4F)c4ncc(F)cc34)nc(C(=O)NCCC(F)(F)F)c21 [Example 51] | 0.1 µM | 0.087 µM |
| CN(C(=O)c1nc(-c2nn(Cc3ccccc3F)c3ncc(F)cc23)nc2c1C(C)(C)C(=O)N2)C1CC1 [Example 52] | 0.01 µM | 0.15 µM |
| CN(CC1CC1)C(=O)c1nc(-c2nn(Cc3ccccc3F)c3ncc(F)cc23)nc2c1C(C)(C)C(=O)N2 [Example 53] | 0.01 µM | 0.11 µM |
| CCC(CC)CNC(=O)c1nc(-c2nn(Cc3ccccc3F)c3ncccc23)nc2c1C(C)(C)C(=O)N2 [Example 59, N-(2-Ethylbutyl)-2-[1-(2-fluorobenzyl)-1H-pyrazolo[3,4-b]pyridin-3-yl]-5,5-dimethyl-6-oxo-6,7-dihydro-5H-pyrrolo[2,3-d]pyrimidine-4-carboxamide] | 1 µM | 0.091 µM |
| CSCCCNC(=O)c1nc(-c2nn(Cc3ccccc3F)c3ncccc23)nc2c1C(C)(C)C(=O)N2 [Example 61, 2-[1-(2-fluorobenzyl)-1H-pyrazolo[3,4-b]pyridin-3-yl]-5,5-dimethyl-N-[3-(methylsulfanyl)propyl]-6-oxo-6,7-dihydro-5H-pyrrolo[2,3-d]pyrimidine-4-carboxamide] | 0.1 µM | 0.016 µM |
| C=CCONC(=O)c1nc(-c2nn(Cc3ccccc3F)c3ncccc23)nc2c1C(C)(C)C(=O)N2 [Example 62, 2-[1-(2-fluorobenzyl)-1H-pyrazolo[3,4-b]pyridin-3-yl]-5,5-dimethyl-6-oxo-N-(prop-2-en-1-yloxy)-6,7-dihydro-5H-pyrrolo[2,3-d]pyrimidine-4-carboxamide] | 0.1 µM | 0.018 µM |
| C[S+]([O-])CCNC(=O)c1nc(-c2nn(Cc3ccccc3F)c3ncccc23)nc2c1C(C)(C)C(=O)N2 (stereo not drawn) [Example 64, 2-[1-(2-fluorobenzyl)-1H-pyrazolo[3,4-b]pyridin-3-yl]-5,5-dimethyl-N-[2-(methylsulfinyl)ethyl]-6-oxo-6,7-dihydro-5H-pyrrolo[2,3-d]pyrimidine-4-carboxamide] | 1 µM | 0.074 µM |
| CC1(C)C(=O)Nc2nc(-c3nn(Cc4ccccc4F)c4ncccc34)nc(C(=O)NCCSC(F)(F)F)c21 [Example 73, 2-[1-(2-fluorobenzyl)-1H-pyrazolo[3,4-b]pyridin-3-yl]-5,5-dimethyl-6-oxo-N-{2-[(trifluoromethyl)sulfanyl]ethyl}-6,7-dihydro-5H-pyrrolo[2,3-d]pyrimidine-4-carboxamide] | 0.3 µM | 0.052 µM |
| CC1(C)C(=O)Nc2nc(-c3nn(Cc4ccccc4F)c4ncccc34)nc(C(=O)NCCC(F)(F)F)c21 [Example 74, 2-[1-(2-fluorobenzyl)-1H-pyrazolo[3,4-b]pyridin-3-yl]-5,5-dimethyl-6-oxo-N-(3,3,3-trifluoropropyl)-6,7-dihydro-5H-pyrrolo[2,3-d]pyrimidine-4-carboxamide] | 0.1 µM | 0.026 µM |
| CC1(C)C(=O)Nc2nc(-c3nn(Cc4ccccc4F)c4ncccc34)nc(C(=O)Nc3cc(F)cc(F)c3)c21 [Example 76, N-(3,5-difluorophenyl)-2-[1-(2-fluorobenzyl)-1H-pyrazolo[3,4-b]pyridin-3-yl]-5,5-dimethyl-6-oxo-6,7-dihydro-5H-pyrrolo[2,3-d]pyrimidine-4-carboxamide] | 1 µM | 0.06 µM |
| CC1(C)C(=O)Nc2nc(-c3nn(Cc4ccccc4F)c4ncccc34)nc(C(=O)Nc3cc(F)c(F)c(F)c3)c21 [Example 77, 2-[1-(2-fluorobenzyl)-1H-pyrazolo[3,4-b]pyridin-3-yl]-5,5-dimethyl-6-oxo-N-(3,4,5-trifluorophenyl)-6,7-dihydro-5H-pyrrolo[2,3-d]pyrimidine-4-carboxamide] | 1 µM | 0.087 µM |
| CC1(C)C(=O)Nc2nc(-c3nn(Cc4ccccc4F)c4ncccc34)nc(C(=O)NC3(C4CC4)CC3)c21 [Example 82, N-[1,1′-bi(cyclopropyl)-1-yl]-2-[1-(2-fluorobenzyl)-1H-pyrazolo[3,4-b]pyridin-3-yl]-5,5-dimethyl-6-oxo-6,7-dihydro-5H-pyrrolo[2,3-d]pyrimidine-4-carboxamide] | 0.1 µM | 0.0086 µM |

Other lines, results leading:

| MEC [1] | IC50 [2] | Structure (SMILES) |
| --- | --- | --- |
| 0.3 µM | 0.0026 µM | Cn1nccc1NC(=O)c1nc(-c2nn(Cc3ccccc3F)c3ncccc23)nc2c1C(C)(C)C(=O)N2 [Example 67, 2-[1-(2-fluorobenzyl)-1H-pyrazolo[3,4-b]pyridin-3-yl]-5,5-dimethyl-N-(1-methyl-1H-pyrazol-5-yl)-6-oxo-6,7-dihydro-5H-pyrrolo[2,3-d]pyrimidine-4-carboxamide] |
| 0.1 µM | 0.01 µM | CC1(C)C(=O)Nc2nc(-c3nn(Cc4ccccc4F)c4ncccc34)nc(C(=O)NCc3ccco3)c21 [Example 69, 2-[1-(2-fluorobenzyl)-1H-pyrazolo[3,4-b]pyridin-3-yl]-N-(furan-2-ylmethyl)-5,5-dimethyl-6-oxo-6,7-dihydro-5H-pyrrolo[2,3-d]pyrimidine-4-carboxamide] |
| 0.3 µM | 0.024 µM | Cn1ccc(NC(=O)c2nc(-c3nn(Cc4ccccc4F)c4ncccc34)nc3c2C(C)(C)C(=O)N3)n1 [Example 70, 2-[1-(2-fluorobenzyl)-1H-pyrazolo[3,4-b]pyridin-3-yl]-5,5-dimethyl-N-(1-methyl-1H-pyrazol-3-yl)-6-oxo-6,7-dihydro-5H-pyrrolo[2,3-d]pyrimidine-4-carboxamide] |
| 0.3 µM | 0.17 µM | Cc1nnc(NC(=O)c2nc(-c3nn(Cc4ccccc4F)c4ncccc34)nc3c2C(C)(C)C(=O)N3)o1 [Example 71, 2-[1-(2-fluorobenzyl)-1H-pyrazolo[3,4-b]pyridin-3-yl]-5,5-dimethyl-N-(5-methyl-1,3,4-oxadiazol-2-yl)-6-oxo-6,7-dihydro-5H-pyrrolo[2,3-d]pyrimidine-4-carboxamide] |
| 1 µM | 0.046 µM | CC1(C)C(=O)Nc2nc(-c3nn(Cc4ccccc4F)c4ncccc34)nc(C(=O)Nc3nccs3)c21 [Example 72, 2-[1-(2-fluorobenzyl)-1H-pyrazolo[3,4-b]pyridin-3-yl]-5,5-dimethyl-6-oxo-N-(1,3-thiazol-2-yl)-6,7-dihydro-5H-pyrrolo[2,3-d]pyrimidine-4-carboxamide] |
| 0.1 µM | 0.03 µM | CONC(=O)c1nc(-c2nn(Cc3ccccc3F)c3ncccc23)nc2c1C(C)(C)C(=O)N2 [Example 79, 2-[1-(2-fluorobenzyl)-1H-pyrazolo[3,4-b]pyridin-3-yl]-N-methoxy-5,5-dimethyl-6-oxo-6,7-dihydro-5H-pyrrolo[2,3-d]pyrimidine-4-carboxamide] |
| 1 µM | 0.023 µM | C[C@H](NC(=O)c1nc(-c2nn(Cc3ccccc3F)c3ncccc23)nc2c1C(C)(C)C(=O)N2)C(N)=O [Example 80, N-[(2S)-1-amino-1-oxopropan-2-yl]-2-[1-(2-fluorobenzyl)-1H-pyrazolo[3,4-b]pyridin-3-yl]-5,5-dimethyl-6-oxo-6,7-dihydro-5H-pyrrolo[2,3-d]pyrimidine-4-carboxamide] |
| 0.1 µM | 0.015 µM | CCCNC(=O)c1nc(-c2nn(Cc3ccccc3F)c3ncccc23)nc2c1C(C)(C)C(=O)N2 [Example 81, 2-[1-(2-fluorobenzyl)-1H-pyrazolo[3,4-b]pyridin-3-yl]-5,5-dimethyl-6-oxo-N-propyl-6,7-dihydro-5H-pyrrolo[2,3-d]pyrimidine-4-carboxamide] |

— patent US20170233413A1, “SUBSTITUTED ANNULATED PYRIMIDINES AND USE THEREOF” (Bayer Pharma Aktiengesellschaft, priority 2014, published 2017)
